Results taken from US8343759B2, “Mammalian cell line expressing inducible c-Src” (National University Corporation Chiba University, priority 2007, dated 2013).
“Also recorded” adds a separate entry of the source. One block for each compound: values may come before it.

How the values were obtained:
COS-I cells = experiment: FRAP of Src-GFP on macropinosomes; format: cell-based; details: cycloheximide-treated COS-I cells, pretreated 10 min with 1 mM NEM or 0.5% tannic acid
Protocol: A-D: FRAP analysis of Src-GFP was performed in COS-I cells treated with cycloheximide. Cells expressing Src-GFP were pretreated with nothing (control) (A), I mM NEM (B), or 0.5% tannic acid (C) for 10 min. Enclosed areas (yellow circles) were photobleached and cells were monitored at 5-sec (A and C) or 60-sec intervals (B) for 10 min. Mean fluorescence intensities on macropinosomes were measured, and results are means±SD (control, n=4; NEM, n=3; Tannic acid, n=5). N, nucleus. Bars 5 μm. E: Equal amounts of lysates from S100 and P100 fractions of Src-GFP-expressing COS-I cells were analyzed by Western blotting with anti-Src, anti-cPLA2 (cytosol marker), and anti-desmoglein (plasma membrane marker) antibodies.
For live-cell imaging, cells cultured in 35-mm glass-based dishes were transiently transfected with plasmid DNA on the preceding day. Time-lapse monitoring was performed using a Fluoview FV5OO with a 40×1.00 oil objective. Images were obtained at low power laser (0.3-3.0% laser) using the 488 nm line of an argon laser. FRAP was performed as described (Kasahara et at., 2004). If necessary, COS-I cells were treated with 200 μg/ml cycloheximide (Sigma-Aldrich) for 2 h before images were obtained. […] Mean fluorescence intensities were quantitated using Fluoview Tiempo time course version 4.2 software. […]

HeLa cells = experiment: EGF-induced macropinosome formation marked with Src(SH4-Unique)-GFP; format: cell-based, human; details: serum-starved HeLa cells expressing Src(SH4-Unique)-GFP, pretreated 30 min with 5 μM SU6656 or 200 nM wortmannin, then 50 ng/ml EGF for 15 min
Protocol: During stimulation, cells were treated with 1 mg/ml RITC-dextran (B). White arrows indicate macropinosomes. […] The number of macropinosomes associated with Src(SH4-Unique)-GFP per 200 cells is shown. Data represent means±SD from three independent experiments. […] Equal amounts of lysates (input lysates) were analyzed by Western blotting with anti-pTyr and anti-actin antibodies. c-Src immunoprecipitates from lysates were analyzed by Western blotting with anti-Src[Y^418] and anti-Src antibodies. c-Src kinase activity was quantitated by measuring signal intensity using anti-Src[pY^418] antibody and normalized to the corresponding signal intensity detected by anti-Src. Results are expressed as mean values (fold) relative to the specific activity of c-Src in unstimulated control cells. […] The number of Src:(SH4-Unique)-GFP-labeled macropinosomes per 200 HeLa (left) or 100 A431 (right) cells was counted. Data represent means±SD from three independent experiments. […] F: Lysates were analyzed by Western blotting with anti-Src[Y^418], anti-Src, anti-pTyr, and anti-actin antibodies. […] White arrows indicate macropinosomes containing RITC-dextran. […] I: Co-localization of RITC-dextran with cathepsin D in macropinosomes was quantitated. […] Macropinosomes wider than 2 μm labeled by c-Src or mutants were counted. All values were expressed as means±D from three independent experiments. […]

EGFR = EGFR (Homo sapiens, UniProt P00533); experiment: EGFR activation by Western blotting of lysates with anti-pTyr; format: cell-based; details: serum-starved HeLa cells pretreated with 5 μM SU6656, EGF for 15 min
Sequence of EGFR (P00533 25-1210): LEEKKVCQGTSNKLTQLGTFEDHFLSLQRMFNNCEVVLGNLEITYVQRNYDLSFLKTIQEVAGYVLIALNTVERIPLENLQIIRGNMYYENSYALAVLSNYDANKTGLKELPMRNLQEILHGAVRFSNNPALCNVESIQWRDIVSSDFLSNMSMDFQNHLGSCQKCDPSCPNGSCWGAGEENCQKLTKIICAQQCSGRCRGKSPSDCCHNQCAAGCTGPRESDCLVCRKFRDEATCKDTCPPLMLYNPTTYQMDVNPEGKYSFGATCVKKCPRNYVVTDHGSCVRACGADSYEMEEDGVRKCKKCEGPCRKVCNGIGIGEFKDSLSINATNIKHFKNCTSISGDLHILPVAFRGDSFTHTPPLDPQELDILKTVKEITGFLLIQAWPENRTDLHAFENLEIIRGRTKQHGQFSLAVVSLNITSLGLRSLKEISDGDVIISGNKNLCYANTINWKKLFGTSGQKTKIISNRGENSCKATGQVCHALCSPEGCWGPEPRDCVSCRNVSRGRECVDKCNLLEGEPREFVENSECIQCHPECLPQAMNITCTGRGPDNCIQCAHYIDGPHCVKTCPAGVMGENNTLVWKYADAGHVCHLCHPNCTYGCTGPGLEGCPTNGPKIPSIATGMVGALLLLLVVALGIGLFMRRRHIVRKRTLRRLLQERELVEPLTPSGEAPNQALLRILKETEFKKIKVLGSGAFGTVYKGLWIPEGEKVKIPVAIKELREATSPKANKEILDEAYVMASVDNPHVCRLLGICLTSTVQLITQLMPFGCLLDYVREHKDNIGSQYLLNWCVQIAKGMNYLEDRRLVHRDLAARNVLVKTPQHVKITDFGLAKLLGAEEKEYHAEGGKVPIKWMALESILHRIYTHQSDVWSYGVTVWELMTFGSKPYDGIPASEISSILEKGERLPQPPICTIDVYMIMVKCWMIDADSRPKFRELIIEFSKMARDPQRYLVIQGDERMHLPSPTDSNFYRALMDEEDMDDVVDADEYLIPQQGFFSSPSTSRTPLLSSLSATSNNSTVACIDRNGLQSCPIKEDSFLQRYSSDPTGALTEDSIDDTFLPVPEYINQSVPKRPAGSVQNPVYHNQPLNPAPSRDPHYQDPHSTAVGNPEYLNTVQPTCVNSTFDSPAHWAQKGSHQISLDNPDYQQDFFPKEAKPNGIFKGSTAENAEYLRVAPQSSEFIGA
Protocol: F: Lysates were analyzed by Western blotting with anti-Src[Y^418], anti-Src, anti-pTyr, and anti-actin antibodies. […] Cell lysates were prepared in Triton X-100 lysis buffer (50 mM HEPES, pH 7.4, 10% glycerol, 1% Triton X-100, 4 mM EDTA, 100 mM NaF, and 1 mM Na3VO4) containing protease inhibitors.

c-Src = target: T1, c-Src (Homo sapiens, UniProt P12931); experiment: c-Src kinase activity in immunoprecipitates by Western blotting with anti-Src[pY418]; format: cell-based; details: serum-starved HeLa cells pretreated with 5 μM SU6656, EGF for 15 min
T1 construct: endogenous in cells; host or cells: HeLa (serum-starved, EGF-stimulated)
T1 sequence (P12931 whole entry): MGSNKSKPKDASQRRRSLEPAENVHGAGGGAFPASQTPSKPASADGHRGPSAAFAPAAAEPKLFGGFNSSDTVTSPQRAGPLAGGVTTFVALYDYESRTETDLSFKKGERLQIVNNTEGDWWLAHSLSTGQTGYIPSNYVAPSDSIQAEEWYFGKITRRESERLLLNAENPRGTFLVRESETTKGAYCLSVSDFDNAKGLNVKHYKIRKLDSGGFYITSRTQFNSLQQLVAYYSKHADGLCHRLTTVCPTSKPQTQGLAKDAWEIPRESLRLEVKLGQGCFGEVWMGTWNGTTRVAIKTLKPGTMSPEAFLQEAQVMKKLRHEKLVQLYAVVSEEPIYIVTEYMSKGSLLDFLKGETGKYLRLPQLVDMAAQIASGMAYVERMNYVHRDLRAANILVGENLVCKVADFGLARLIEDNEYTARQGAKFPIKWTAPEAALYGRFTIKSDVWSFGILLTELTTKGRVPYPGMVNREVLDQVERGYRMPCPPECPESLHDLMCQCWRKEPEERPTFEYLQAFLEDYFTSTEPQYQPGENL
Protocol: Results are expressed as mean values (fold) relative to the specific activity of c-Src in unstimulated control cells. […] F: Lysates were analyzed by Western blotting with anti-Src[Y^418], anti-Src, anti-pTyr, and anti-actin antibodies. […] Western blotting and immunoprecipitation were as described (Hirao et al., 1997; Mera et al., 1999; Yamaguchi et al., 2001; Kasahara et al., 2004). Cell lysates were prepared in Triton X-100 lysis buffer (50 mM HEPES, pH 7.4, 10% glycerol, 1% Triton X-100, 4 mM EDTA, 100 mM NaF, and 1 mM Na3VO4) containing protease inhibitors. For immunoprecipitation, lysates were incubated with protein G-Sepharose beads (Amersham) precoated with anti-Src (#327) overnight at 4° C.

10T½ cells = experiment: PMA-stimulated macropinocytosis (RITC-dextran-labeled macropinosomes); format: cell-based, mouse; details: 10T½ cells pretreated with 5 μM SU6656 for 30 min, then 200 nM PMA plus 1 mg/ml RITC-dextran for 20 min
Protocol: Data represent means±SD from three independent experiments. […] For comparison, the open bar is a reproduction of the data of Src-CFP in FIG. 2D. B: COS-1 cells transfected with c-Src plus Src(SH4-Unique)-GFP were cultured for 24 h and visualized with anti-Src (red) immunofluorescence and GFP fluorescence (green). C: 10T½ cells transfected with Src(SH4-Unique)-GFP (control) were treated with 200 nM PMA plus 1 mg/ml RITC-dextran for 15 min (1 PMA). D: 10T½ cells expressing Src(SH4-Unique)-GFP were stimulated with 200 nM PMA and cells were monitored at 30-sec intervals. The time of PMA addition is indicated as 0 sec (00′00″). E: 10T½ cells expressing Lyn(SH4-Unique)-GFP were treated with 200 nM PMA for 30 min and imaged by GFP fluorescence and Nomarski optics. F: 10T½ cells were pretreated with 5 μM SU6656 or none for 30 min and then stimulated with 200 nM PMA plus 1 mg/ml RITC-dextran for 20 min. […] Data represent means±SD from three independent experiments. […] Arrows indicate macropinosomes. N, nucleus. Bars, 10 μm. Macropinosomes wider than 2 μm labeled by c-Src or mutants were counted. All values were expressed as means±D from three independent experiments. Rhodamine B-isothiocyanate (RITC)-dextran (Mr 70,000), PMA, and wortmannin were from Sigma-Aldrich. SU6656 (Blake et al., 2000) was from Calbiochem. EGF was a kind gift of M. N. Fukuda.

Structure (SMILES): O=C(OC[C@H]1O[C@@H](OC(=O)c2cc(O)c(O)c(OC(=O)c3cc(O)c(O)c(O)c3)c2)[C@H](OC(=O)c2cc(O)c(O)c(OC(=O)c3cc(O)c(O)c(O)c3)c2)[C@@H](OC(=O)c2cc(O)c(O)c(OC(=O)c3cc(O)c(O)c(O)c3)c2)[C@@H]1OC(=O)c1cc(O)c(O)c(OC(=O)c2cc(O)c(O)c(O)c2)c1)c1cc(O)c(O)c(OC(=O)c2cc(O)c(O)c(O)c2)c1 [tannic acid]
inhibition of fluorescence recovery of Src-GFP on macropinosomes (COS-I cells): partly inhibited

Structure (SMILES): CCN1C(=O)C=CC1=O [NEM, N-ethyl maleimide]
inhibition of fluorescence recovery of Src-GFP on macropinosomes (COS-I cells): inhibited

effect on EGFR activation (EGFR): without affecting
Structure (SMILES): CN(C)S(=O)(=O)c1ccc2c(c1)/C(=C/c1cc3c([nH]1)CCCC3)C(=O)N2 [SU6656]
inhibition of EGF-induced macropinosome formation (HeLa cells): partly inhibited
effect on c-Src activity (c-Src): decreased c-Src activity below basal levels
inhibition of PMA-stimulated macropinocytosis (10T½ cells): not significant; also recorded: not inhibited; also recorded: did not inhibit
